Test results published in patent US8614068B2, “Process for producing hepcidin” (Hellenic Pasteur Institute, priority 2007, dated 2013).
Entries after “also recorded” stand apart in the source; their conditions may differ.

Tests used:
ferroportin (FPN1) [1] = molecular target: T1, ferroportin (FPN1) (Mus musculus, UniProt Q9JHI9); experiment: Western blot of ferroportin expression in macrophages; format: cell-based, murine
T1 construct: endogenous in cells; host or cells: RAW 264.7 murine macrophages
T1 sequence (Q9JHI9 1-570): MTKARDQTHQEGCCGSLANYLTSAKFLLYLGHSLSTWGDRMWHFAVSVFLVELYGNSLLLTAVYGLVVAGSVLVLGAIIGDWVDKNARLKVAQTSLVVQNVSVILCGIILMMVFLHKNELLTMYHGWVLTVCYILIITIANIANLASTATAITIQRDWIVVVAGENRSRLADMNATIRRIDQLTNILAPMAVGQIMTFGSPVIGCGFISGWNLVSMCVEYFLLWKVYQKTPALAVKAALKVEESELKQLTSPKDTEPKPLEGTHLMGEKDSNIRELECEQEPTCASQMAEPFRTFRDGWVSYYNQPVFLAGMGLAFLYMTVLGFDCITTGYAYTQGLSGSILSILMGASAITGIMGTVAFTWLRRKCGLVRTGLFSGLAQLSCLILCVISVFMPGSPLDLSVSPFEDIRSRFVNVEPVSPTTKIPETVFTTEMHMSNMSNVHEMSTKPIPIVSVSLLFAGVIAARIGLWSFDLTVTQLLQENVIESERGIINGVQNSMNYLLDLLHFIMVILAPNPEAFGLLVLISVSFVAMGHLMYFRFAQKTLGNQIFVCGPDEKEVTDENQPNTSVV
Description: (§1) A, RAW 264.7 macrophages were treated with 11 μM and 10 μM of synthetic hepcidin-25 (having the sequence of SEQ ID NO. 2) and Hep-25His (having the sequence of SEQ ID NO. 6) for 4 h at 37° C. or with PBS as negative control. Cell lysates were subjected to 8% SDS PAGE and Western Blot with antibodies against TfR1, Ferroportin and actin as loading control. B, The signal density of ferroportin, TfR1 and actin protein bands from two independent experiments were quantified by densitometry and their intensity relative to actin was calculated. […] Hep25-His, negative peptide and PBS was incubated with Raw 264.7 macrophages, followed by cross-linking with DSS. Cell lysates were incubated with Ni2-NTA and eluates were analyzed by Western blot using anti-FPN1 Ab. […] HEK293-Fpn cells were induced with ponasterone for 24 h and then treated with Hep25-His or synthetic hepcidin 25 (s. Hep25) for 3 h. Fluorescence was visualized with a Leica TCS confocal microscope.
(§2) Western blotting—1×10^6 cells (RAW 264.7, THP-1 or J774) were plated in […] plates and after 12-20 h cells were treated with hepcidins in serum-free DMEM for 4 h, at 37° C. Afterwards, cells were re-suspended in lysis buffer (1% Triton, 25 mM Hepes pH 7.4, 150 mM NaCl, 10% Glycerol, 5 mM EDTA, 0.5 mM PMSF, protein inhibitors (Roche, Mannheim, Germany) and quantified by Bradford assay (Biorad, Hercules, Calif.). 30 μg of cell lysate was analyzed on 8% SDS-PAGE. Proteins were transferred to Hybond C nitrocellulose membrane (Amersham Biosciences, Piscataway, N.J.) and the membranes were incubated with the primary antibodies rabbit anti-ferroportin (Alpha Diagnostics, San Antonio, Tex.), mouse anti-TfR1 (Zymed, Invitrogen, Carlsbad, Calif.) and mouse anti-β actin (Santa Cruz Biotech, Santa Cruz, Calif.), in a dilution of 1:1000, overnight at 4° C. After washing, the membranes were incubated with anti-rabbit and anti-mouse secondary antibodies conjugated with HRP, in a dilution of 1:5000 (DakoCytomation, Carpinteria, Calif.), for 1 h at room temperature. Specific signal was detected with a chemiluminescence assay kit (ECL, Amersham Biosciences, Piscataway, N.J.). The bands were quantified by densitometry using the Quantity-One (Biorad, Hercules, Calif.) software. Data are shown as means±SD. Statistical analysis was performed by student t-Test.

TfR1 = experiment: Western blot of TfR1 expression in macrophages; format: cell-based, murine
Description: as §1
as §2, with “After washing, the membranes were incubated with anti-rabbit and anti-mouse secondary antibodies conjugated with HRP, in a dilution of 1:5000 (DakoCytomation, Carpinteria, Calif.), for 1 h at room temperature.” left out, “Data are shown as means±SD. Statistical analysis was performed by student t-Test.” left out

FPN1-GFP = molecular target: T2, FPN1-GFP (Mus musculus, UniProt Q9JHI9); experiment: FPN1-GFP internalization by confocal microscopy in HEK293-Fpn cells; format: cell-based; details: HEK293-Fpn cells induced with ponasterone 24 h, treated 3 h
T2 construct: expressed in transfected cells
T2 sequence (Q9JHI9 1-570): T1 sequence (Q9JHI9 1-570)
Description: A, RAW 264.7 macrophages were treated with 11 μM and 10 μM of synthetic hepcidin-25 (having the sequence of SEQ ID NO. 2) and Hep-25His (having the sequence of SEQ ID NO. 6) for 4 h at 37° C. or with PBS as negative control. Cell lysates were subjected to 8% SDS PAGE and Western Blot with antibodies against TfR1, Ferroportin and actin as loading control. B, The signal density of ferroportin, TfR1 and actin protein bands from two independent experiments were quantified by densitometry and their intensity relative to actin was calculated. Data are expressed as mean of ratios of TfR1 or to actin levels ±S.D. for each experimental condition. *p<0.01. […] Hep25-His, negative peptide and PBS was incubated with Raw 264.7 macrophages, followed by cross-linking with DSS. Cell lysates were incubated with Ni2-NTA and eluates were analyzed by Western blot using anti-FPN1 Ab. […] Fluorescence was visualized with a Leica TCS confocal microscope. […]
Furthermore, the internalization of FPN1 in the presence of Hep25-His (having the sequence of SEQ ID NO. 6) was analyzed in HEK293-Fpn cells by confocal microscopy; these cells express an FPN1-GFP fusion construct on the plasma membrane (Nemeth, E., Tuttle, M. S., Powelson, J., Vaughn, M. B., Donovan, A., Ward, D. M. Ganz, T., Kaplan, J. (2004) Science 306, 2090-3).

ferroportin (FPN1) [2] = molecular target: T1, ferroportin (FPN1); experiment: Western blot of ferroportin expression in macrophages; format: cell-based, murine; details: RAW 264.7, 1 μM, 4 h at 37° C.
[3] = RAW 264.7, 10 μM, 4 h at 37° C.

hepcidin-25His [Hep-25His]
reduction of FPN1 in comparison to untreated cells (ferroportin (FPN1) [1]; [3]): 48±3% | decrease in ferroportin levels (ferroportin (FPN1) [1]; RAW 264.7 macrophages): ~50% | effect of higher concentrations on FPN1 and TfR1 (ferroportin (FPN1) [1]; concentrations higher than 10 μM, data not shown): did not have a stronger effect | reduction of TfR1 in comparison to untreated cells (TfR1; [3]): 48%±17.7 | decrease in TfR1 expression (TfR1; RAW 264.7 macrophages): ~50% | internalization of FPN1-GFP (FPN1-GFP): promoted the internalization of FPN1-GFP; also recorded: causes the internalization of FPN1-GFP | reduction of FPN1 in comparison to untreated cells (ferroportin (FPN1) [2]): 37%±7
